In patent US10865222B2, “Neisseria gonorrhoeae therapeutic based on CMP-nonulosonate sugars” (priority 2014, dated 2020):
“Also recorded” adds a separate entry of the source.

Tests used:
N. gonorrhoeae F62 ΔIgtD [1] = type: cell-based; parameters: key to Serum resistance: high: >100% survival in 10% serum; low: >100% survival in 3.3% serum and <10% survival in 10% serum; conditions: for bacterial survival / serum resistance: all serum concentrations tested (10, 6.7, 3.3%), 30 μM; for serum resistance mediated by CMP-Neu5Ac: analogue 20, 2 or 0.2 μg/ml added 15 min after CMP-Neu5Ac 20 μg/ml, grown 2 h; for killing of bacteria made serum resistant by CMP-Neu5Ac: analogue added 120 min after CMP-Neu5Ac, data not shown; for Serum resistance: summary Table 1
Procedure: FIG. 2. […] N. gonorrhoeae F62 ΔIgtD was grown in media alone (no CMP-sialic acid added), or media that contained 20 μg/ml (˜30 μM) of each of the indicated CMP-nonulosonates. Resistance of bacteria to complement-dependent killing in the presence of 3.3%, 6.7% or 10% normal human serum (NHS) was measured in serum bactericidal assays.
FIG. 5. […] N. gonorrhoeae F62 ΔIgtD was suspended in media containing 20 μg/ml (˜30 μM) CMP-Neu5Ac. Following 15 min of incubation at 37° C., CMP-Neu5Ac9Az or CMP-Leg5Ac7Ac (at concentrations of 20, 2 or 0.2 μg/ml final) were added and bacteria were incubated for 2 h. Serum bactericidal assays were then performed using 3.3% (solid black bars) or 10% (hatched bars) NHS. Controls included bacteria in media that lacked any CMP-nonulosonate, or bacteria that were incubated in CMP-Neu5Ac only. Y-axis, % survival.
We next determined the effects of incorporation of the CMP salts of five structural analogues of Neu5Ac (Neu5Gc, Neu5Ac9Ac, Neu5Ac9Az, Neu5Gc8Me and Leg5Ac7Ac) on the ability of N. gonorrhoeae F62 ΔIgtD to resist complement-dependent killing by normal human serum at concentrations of 10, 6.7 or 3.3%. Bacteria were grown either in media alone, or media supplemented with 30 μM (˜20 μg/ml) of each of the CMP-nonulosonates.
The ability of two of the CMP-nonulosonates, CMP-Neu5Ac9Az and CMP-Leg5Ac7Ac, to counter the ability of CMP-Neu5Ac to enhance serum resistance of N. gonorrrhoeae was then examined. The analogues were added at concentrations of 20, 2 or 0.2 μg/ml to growth media 15 min after the addition of CMP-Neu5Ac (20 μg/ml) to F62 ΔIgtD.
Serum bactericidal assays were performed as described previously (11). Bacteria harvested from an overnight culture on chocolate agar plates were grown in liquid media containing the specified concentration of CMP-nonulosonate as specified for each experiment. Approximately 2000 CFU of F62 ΔIgtD were incubated with NHS (concentration specified for each experiment). The final reaction volumes were maintained at 150 μl. […]

N. gonorrhoeae F62 ΔIgtD [2] = assay: Flow cytometry for factor H binding to bacteria; type: cell-based; parameters: key to fH binding: minimal: compared to unsialylated gonococci; conditions: for fH binding facilitated by CMP-Neu5Ac: analogue added within 2 min of CMP-Neu5Ac 20 μg/ml
Procedure: FIG. 3. Effects of LOS modification with various nonulosonate analogues on fH binding to N. gonorrhoeae. N. gonorrhoeae F62 ΔIgtD was grown in media alone, or media supplemented with 20 μg/ml (˜30 μM) of each of the indicated CMP-nonulosonates. Binding of bacteria to fH (10 μg/ml) was measured by flow cytometry using polyclonal goat anti-human fH. The control indicates reaction mixtures that lacked fH. Y-axis, median fluorescence of fH binding. The mean (SD) of 2 independent repeats is shown.
FIG. 7. […] A. N. gonorrhoeae F62 ΔIgtD was incubated in media containing CMP-Neu5Ac (20 μg/ml), followed […] by the addition of either CMP-Neu5Ac9Az or CMP-Leg5Ac7Ac (20, 2 or 0.2 μg/ml). Bacteria were grown for 2 h and fH binding detected by FACS using polyclonal goat anti-human fH. The Y-axis represents median fluorescence. The mean (SEM) of two independent observations is shown. B. Development of serum resistance lags behind fH binding when measured as a function of time of exposure of bacteria to CMP-Neu5Ac. CMP-Neu5Ac (20 μg/ml) was added to media containing F62 ΔIgtD and bacteria were taken at the time points indicated on the X-axis and assayed for fH binding by FACS with anti-fH mAb 90× (left Y-axis; median fluorescence (SEM)), or tested for its ability to resist killing by 10% NHS (right Y-axis; percent survival). The data represent 2-3 independent experiments. C. Representative histograms of a fH binding FACS experiment.
The addition of a terminal Neu5Ac residue to LNT-expressing LOS enhances binding of the alternative pathway inhibitor, factor H, which contributes to the ability of sialylated gonococci to resist killing by complement (7). fH binding to N. gonorrhoeae F62 ΔIgtD grown in the presence of each of the CMP-nonulosonates (20 μg/ml or 30 μM) was examined (FIG. 3). […] Reducing the CMP-nonulosonate concentrations in growth media to 2 μg/ml (3 μM) yielded similar fH binding results (FIG. 9B). Further, modification of LOS with Neu5Ac or Neu5Gc yielded similar amounts of fH binding over CMP-sialic acid concentrations ranging from 0.5 to 4 μg/ml, with near maximal fH binding observed even at the lowest concentration tested (FIG. 9C).
fH binding to bacteria was performed using flow cytometry as described previously (14). Briefly, bacteria (F62 ΔIgtD) were harvested from chocolate agar plates and grown in liquid media that contained the specified concentration of the CMP-nonulosonate as described above. Bacteria were then washed with Hanks Balanced Salt Solution (HBSS) containing 1 mM Ca^2+ and 1 mM Mg^2+ (HBSS^++) and incubated with fH purified from human plasma (Complement Technology, Inc.; concentration specified for each experiment). Bound fH was detected using either anti-fH mAb (Quidel, catalog no. A254 (mAb 90×)) or goat anti-human fH, followed by FITC conjugated anti-mouse IgG or anti-goat IgG, respectively (Sigma); both Abs had similar performance characteristics. All reaction mixtures were carried out in HBSS^++/1% BSA in a final volume of 50 μl. Flow cytometry was performed using a FACSCalibur instrument (Becton Dickinson) and data were analyzed using FlowJo (version 7.2.5; Tree Star, Inc.).

[3] = CMP-nonulosonate 20 μg/ml or 30 μM, vs unsialylated F62 ΔIgtD

Compound | bacterial survival / serum resistance (N. gonorrhoeae F62 ΔIgtD [1]) | serum resistance mediated by CMP-Neu5Ac (N. gonorrhoeae F62 ΔIgtD [1]) | killing of bacteria made serum resistant by CMP-Neu5Ac (N. gonorrhoeae F62 ΔIgtD [1]) | Serum resistance (N. gonorrhoeae F62 ΔIgtD [1]) | fH binding facilitated by CMP-Neu5Ac (N. gonorrhoeae F62 ΔIgtD [2]) | fH binding (N. gonorrhoeae F62 ΔIgtD [2]; summary Table 1) | fH binding (N. gonorrhoeae F62 ΔIgtD [2]; [3]) | bacterial survival (N. gonorrhoeae F62 ΔIgtD [1]; CMP-Neu5Ac 20 μg/ml, 32 min exposure, 10% NHS) [%] | resistance to 10% serum (N. gonorrhoeae F62 ΔIgtD [1]; CMP-nonulosonate 3 μM (~2 μg/ml), 10% serum) | fH binding as function of time of exposure (N. gonorrhoeae F62 ΔIgtD [2]; CMP-Neu5Ac 20 μg/ml, 2 min) | fH binding, % of maximal binding (N. gonorrhoeae F62 ΔIgtD [2]; CMP-Neu5Ac 20 μg/ml, by 16 min) [%] | fH binding as function of time of exposure (N. gonorrhoeae F62 ΔIgtD [2]; CMP-Neu5Ac 20 μg/ml, by 32 min) | fH binding (N. gonorrhoeae F62 ΔIgtD [2]; CMP-sialic acid 0.5 to 4 μg/ml, lowest concentration tested)
5,7-diacetamido-3,5,7,9-tetradeoxy-D-glycero-D-galacto-nonulosonic acid [CMP-Leg5Ac7Ac] | did not increase bacterial survival | blocked serum resistance; also recorded: completely blocked | did not induce any killing | none | did not interfere with fH binding | minimal | – | – | – | – | – | – | –
CC(=O)N[C@H]1[C@H]([C@H](O)[C@H](O)COC(C)=O)OC(OP(=O)(O)OC[C@H]2O[C@@H](n3ccc(N)nc3=O)[C@H](O)[C@@H]2O)(C(=O)O)C[C@@H]1O (stereo partly drawn) [CMP-Neu5Ac9Ac, CMP-5-acetamido-9-O-acetyl-3,5-dideoxy-D-glycero-D-galacto-nonulosonic acid] | – | – | – | low^C | – | intermediate | intermediate | – | – | – | – | – | –
CC(=O)N[C@H]1[C@H]([C@H](O)[C@H](O)CN=[N+]=[N-])OC(OP(=O)(O)OC[C@H]2O[C@@H](n3ccc(N)nc3=O)[C@H](O)[C@@H]2O)(C(=O)O)C[C@@H]1O (stereo partly drawn) [CMP-Neu5Ac9Az, CMP-5-acetamido-9-azido-3,5,9-trideoxy-D-glycero-D-galacto-nonulosonic acid] | did not increase bacterial survival | blocked serum resistance; also recorded: completely blocked | did not induce any killing | none | did not interfere with fH binding | minimal^A | – | – | – | – | – | – | –
CC(=O)NC1C(O)CC(OP(=O)(O)OCC2OC(n3ccc(N)nc3=O)C(O)C2O)(C(=O)O)OC1C(O)C(O)CO [CMP-Neu5Ac, CMP-5-acetamido-3,5-dideoxy-D-glycero-D-galacto-nonulosonic acid, reference compound] | – | – | – | high^B (>100% survival in 10% serum) | – | high | Maximal | ~42 | conferred resistance | barely any fH binding above control levels | ~70 | near maximal binding | near maximal
COC(CO)C(O)C1OC(OP(=O)(O)OCC2OC(n3ccc(N)nc3=O)C(O)C2O)(C(=O)O)CC(O)C1NC(=O)CO [CMP-Neu5Gc8Me, CMP-5-hydroxyacetamido-8-O-methyl-3,5-dideoxy-D-glycero-D-galacto-nonulosonic acid] | – | – | – | low | – | minimal | – | – | – | – | – | – | –
